Drawing on ChEMBL document CHEMBL1136019, “Structure-based optimisation of 2-aminobenzylstatine derivatives: potent and selective inhibitors of the chymotrypsin-like activity of the human 20S proteasome” (Bioorg Med Chem Lett, 2002), this text covers IC50 for 19 molecules.

The IC50 is the concentration that inhibits the measured activity by half.

SMILES strings stand for the structures. Where only a bound is given, the exact number is not on record here.

The experiment deals with 20S proteasome. The experiment can be described thus: Tested in vitro for inhibition of chymotrypsin like activity of purified human 20S proteasome. It is filed as subcellular.

Molecule `COc1ccc(CNC(=O)[C@@H](NC(=O)[C@H](NCc2cc(OC)c(OC)c(OC)c2)[C@H](O)[C@H](Cc2ccccc2)NC(=O)[C@@H](NC(=O)Cc2cccc3ccccc23)C(C)(C)C)C(C)C)c(O)c1` came in with a 50% inhibitory concentration (IC50) of 7 nM. Consider `COc1ccc(CNC(=O)[C@@H](NC(=O)[C@H](NCc2cc(OC)c(OC)cc2OC)[C@H](O)[C@H](Cc2ccccc2)NC(=O)[C@@H](NC(=O)OCc2ccccc2)C(C)(C)C)C(C)C)c(O)c1`, for which the 50% inhibitory concentration (IC50) was determined as 200 nM.

The molecule `COc1ccc(CNC(=O)[C@@H](NC(=O)[C@H](NCc2ccc(N(C)C)cc2)[C@H](O)[C@H](Cc2ccccc2)NC(=O)[C@@H](NC(=O)Cc2cccc3ccccc23)C(C)(C)C)C(C)C)c(O)c1` came in with an IC50 of 160 nM. In turn, `COc1ccc(CN[C@@H](C(=O)N[C@H](C(=O)NCc2ccc(OC)cc2O)C(C)C)[C@H](O)[C@H](Cc2ccccc2)NC(=O)[C@@H](NC(=O)Cc2cccc3ccccc23)C(C)(C)C)cc1` yielded a half-maximal inhibitory concentration (IC50) of 100 nM.

Molecule `COc1cc(CN[C@@H](C(=O)N[C@H](C(=O)NCc2ccc(OC)cc2O)C(C)C)[C@H](O)[C@H](Cc2ccccc2)NC(=O)[C@@H](NC(=O)OCc2ccccc2)C(C)(C)C)cc(OC)c1` displayed an IC50 of 190 nM.

`COc1ccc(CNC(=O)[C@@H](NC(=O)[C@H](NCc2ccc(OC)c(OC)c2OC)[C@H](O)[C@H](Cc2ccccc2)NC(=O)[C@@H](NC(=O)Cc2cccc3ccccc23)C(C)(C)C)C(C)C)c(O)c1`: inhibition was half-maximal at 18 nM (IC50). Regarding `COc1ccc(CNC(=O)[C@@H](NC(=O)[C@H](NCc2ccc(C(C)C)cc2)[C@H](O)[C@H](Cc2ccccc2)NC(=O)[C@@H](NC(=O)OCc2ccccc2)C(C)(C)C)C(C)C)c(O)c1`, the concentration for half-maximal inhibition (IC50) was 1600 nM. In the case of `COc1ccc(CNC(=O)[C@@H](NC(=O)[C@H](NCc2ccc(Oc3ccccc3)cc2)[C@H](O)[C@H](Cc2ccccc2)NC(=O)[C@@H](NC(=O)OCc2ccccc2)C(C)(C)C)C(C)C)c(O)c1`, the IC50 is over 20000 nM. Regarding `COc1ccc(CNC(=O)[C@@H](NC(=O)[C@H](NCc2ccccc2)[C@H](O)[C@H](Cc2ccccc2)NC(=O)[C@@H](NC(=O)OCc2ccccc2)C(C)(C)C)C(C)C)c(O)c1`, the half-maximal inhibitory concentration (IC50) is over 20000 nM. For the molecule `COc1ccc(CNC(=O)[C@@H](NC(=O)[C@H](NCc2cc(OC)c(OC)c(OC)c2)[C@H](O)[C@H](Cc2ccccc2)NC(=O)[C@@H](NC(=O)OCc2ccccc2)C(C)(C)C)C(C)C)c(O)c1`, the 50% inhibitory concentration (IC50) came to 50 nM. For `COc1ccc(CNC(=O)[C@@H](NC(=O)[C@H](NCc2ccc(OC)cc2OC)[C@H](O)[C@H](Cc2ccccc2)NC(=O)[C@@H](NC(=O)OCc2ccccc2)C(C)(C)C)C(C)C)c(O)c1` the value was 1600 nM; for `COc1ccc(CNC(=O)[C@@H](NC(=O)[C@H](NCc2cc(OC)c(OC)cc2OC)[C@H](O)[C@H](Cc2ccccc2)NC(=O)[C@@H](NC(=O)Cc2cccc3ccccc23)C(C)(C)C)C(C)C)c(O)c1`, 29 nM; for `COc1ccc(CNC(=O)[C@@H](NC(=O)[C@H](NCc2ccc(-c3ccccc3)cc2)[C@H](O)[C@H](Cc2ccccc2)NC(=O)[C@@H](NC(=O)OCc2ccccc2)C(C)(C)C)C(C)C)c(O)c1`, over 20000 nM. The molecule `COc1ccc(CNC(=O)[C@@H](NC(=O)[C@H](NCc2ccc(N(C)C)cc2)[C@H](O)[C@H](Cc2ccccc2)NC(=O)[C@@H](NC(=O)OCc2ccccc2)C(C)(C)C)C(C)C)c(O)c1` showed an IC50 of 600 nM.

`COc1ccc(CNC(=O)[C@@H](NC(=O)[C@H](NCc2ccc(OC)c(OC)c2OC)[C@H](O)[C@H](Cc2ccccc2)NC(=O)[C@@H](NC(=O)OCc2ccccc2)C(C)(C)C)C(C)C)c(O)c1`: 100 nM corresponded to half-maximal inhibition (IC50). `COc1ccc(CNC(=O)[C@@H](NC(=O)[C@H](NCc2ccc(OC)c(OC)c2)[C@H](O)[C@H](Cc2ccccc2)NC(=O)[C@@H](NC(=O)OCc2ccccc2)C(C)(C)C)C(C)C)c(O)c1` displayed a 50% inhibitory concentration (IC50) of 150 nM.

`COc1ccc(CN[C@@H](C(=O)N[C@H](C(=O)NCc2ccc(OC)cc2O)C(C)C)[C@H](O)[C@H](Cc2ccccc2)NC(=O)[C@@H](NC(=O)OCc2ccccc2)C(C)(C)C)cc1` had an IC50 of 900 nM.

Regarding `COc1cccc(CN[C@@H](C(=O)N[C@H](C(=O)NCc2ccc(OC)cc2O)C(C)C)[C@H](O)[C@H](Cc2ccccc2)NC(=O)[C@@H](NC(=O)OCc2ccccc2)C(C)(C)C)c1`, the IC50 was determined as 1500 nM. For `COc1ccc(CNC(=O)[C@@H](NC(=O)[C@H](NCc2ccccc2OC)[C@H](O)[C@H](Cc2ccccc2)NC(=O)[C@@H](NC(=O)OCc2ccccc2)C(C)(C)C)C(C)C)c(O)c1` the value was over 20000 nM.
